Assay results: the NIST ThermoML archive (doi:10.1021/je9005344)
± gives the expanded uncertainty stated by the source.

Details: 298.15 K, 101.3 kPa, Liquid; for viscosity: Capillary tube (Ostwald / Ubbelohde) method; for speed of sound: Pulse-echo method; for mass density: Vibrating tube method

Row | SMILES | viscosity [mPa·s] | speed of sound [m/s] | mass density [kg/m3]
1 | COCCO [2-methoxyethan-1-ol] | 1.512 ± 0.013 | 1343.5 ± 1.2 | 960.978 ± 0.23
2 | CCCCCCCCCCO [decan-1-ol] | 11.19 ± 0.077 | 1379.9 ± 1.2 | 826.47 ± 0.23
3 | CCCCCCO [hexan-1-ol] | 4.439 ± 0.033 | 1303.2 ± 1.2 | 815.265 ± 0.23
4 | CCCCCCCCO [octan-1-ol] | 7.143 ± 0.051 | 1347.6 ± 1.2 | 821.794 ± 0.23
